Measured values reported in ChEMBL document CHEMBL4346677, “Compounds based on 5-(perylen-3-ylethynyl)uracil scaffold: High activity against tick-borne encephalitis virus and non-specific activity against enterovirus A” (Eur J Med Chem, 2019).
pEC50: −log10 of the molar value. Activity calls are given as the source filed them. The rule behind the calls is not given here.

Key:
[1] = test system: Tick-borne encephalitis virus; test: Antiviral activity against TBEV Absettarov infected in PEK cells assessed as plaque reduction preincubated for 1 hr followed by overlaying with 1.26% methylcellulose and measured after 6 days by gentian violet staining-based assay; type: functional, organism-based
[2] = Cytotoxicity against PEK cells assessed as reduction in cell viability after 24 hrs by microscopic method; type: cell-based, Sus scrofa; details: pig
[3] = Cytotoxicity against PEK cells assessed as reduction in cell viability after 7 days by microscopic method; type: cell-based, Sus scrofa; details: pig
[4] = Cytotoxicity against PEK cells assessed as formation of syncytium-like patterns of cells at 50 uM after 7 days by microscopic method; type: cell-based, Sus scrofa; details: pig, 168 h
Vero = test: Cytotoxicity against African green monkey Vero cells assessed as formation of syncytium-like patterns of cells at 50 uM after 7 days by microscopic method; type: cell-based; details: chlorocebus sabaeus, 168 h
RD = test: Cytotoxicity against human RD cells assessed as formation of syncytium-like patterns of cells at 50 uM after 7 days by microscopic method; type: cell-based; details: 168 h
Poliovirus 1 = test: Antiviral activity against poliovirus type 1 sabin 1; type: functional, organism-based
Echovirus = test: Antiviral activity against Echovirus 30 isolate 48461; type: functional, organism-based
[5] = Cytotoxicity against African green monkey Vero cells assessed as reduction in cell viability after 24 hrs by microscopic method; type: cell-based; details: chlorocebus sabaeus
[6] = Cytotoxicity against African green monkey Vero cells assessed as reduction in cell viability after 7 days by microscopic method; type: cell-based; details: chlorocebus sabaeus
[7] = Cytotoxicity against human RD cells assessed as reduction in cell viability after 24 hrs by microscopic method; type: cell-based
[8] = Cytotoxicity against human RD cells assessed as reduction in cell viability after 7 days by microscopic method; type: cell-based
Enterovirus A71 = test: Antiviral activity against Enterovirus A71 isolate 46973 infected in human RD cells assessed as reduction in virus induced cytopathic effect preincubated with viral suspension for 1 hr followed by cell addition measured after 5 to 7 days; type: functional, organism-based

SMILES: CC(C)(C)C(=O)OCn1c(=O)c(C#Cc2ccc3c4cccc5cccc(c6cccc2c63)c54)cn(CC(=O)O)c1=O
- pEC50 [1]: 8.92
- CC50 at 24 h [2]: > 50 µM
- CC50 at 168 h [3]: > 50 µM
- Activity [4]: Toxic
- Activity (Vero): Toxic
- Activity (RD): Toxic
- Activity (Poliovirus 1): inactive
- Activity (Echovirus): inactive

SMILES: O=C(Cn1cc(C#Cc2ccc3c4cccc5cccc(c6cccc2c63)c54)c(=O)[nH]c1=O)NCCCO
- CC50 at 24 h [5]: > 50 µM
- pEC50 [1]: 8.22
- CC50 at 168 h [6]: > 50 µM
- CC50 at 24 h [2]: > 50 µM
- CC50 at 168 h [3]: > 50 µM
- CC50 at 24 h [7]: > 104 µM
- CC50 at 168 h [8]: > 104 µM
- EC50 (Enterovirus A71): Not Active
- Activity [4]: Toxic
- Activity (Vero): Toxic
- Activity (RD): Toxic
- Activity (Poliovirus 1): inactive
- Activity (Echovirus): inactive

SMILES: CC(C)(C)C(=O)OCn1c(=O)c(C#Cc2ccc3c4cccc5cccc(c6cccc2c63)c54)cn(CC(=O)NC[C@H](O)C(C)(C)CO)c1=O
- CC50 at 24 h [5]: > 50 µM
- pEC50 [1]: 9.10
- CC50 at 168 h [6]: > 50 µM
- CC50 at 24 h [2]: > 50 µM
- CC50 at 168 h [3]: > 50 µM
- CC50 at 24 h [7]: 19 µM
- CC50 at 168 h [8]: 19 µM
- EC50 (Enterovirus A71): Not Active
- Activity [4]: Toxic
- Activity (Vero): Toxic
- Activity (RD): Toxic
- Activity (Poliovirus 1): inactive
- Activity (Echovirus): inactive

SMILES: CC(C)(C)C(=O)OCn1c(=O)c(C#Cc2ccc3c4cccc5cccc(c6cccc2c63)c54)cn(CC(=O)NCCCCCO)c1=O
- CC50 at 24 h [5]: 32 µM
- pEC50 [1]: 8.80
- CC50 at 168 h [6]: > 50 µM
- CC50 at 24 h [2]: > 50 µM
- CC50 at 168 h [3]: > 50 µM
- CC50 at 24 h [7]: 19 µM
- CC50 at 168 h [8]: 10 µM
- EC50 (Enterovirus A71): Not Active
- Activity [4]: Toxic
- Activity (Vero): Toxic
- Activity (RD): Toxic
- Activity (Poliovirus 1): inactive
- Activity (Echovirus): inactive

SMILES: O=C(O)Cn1cc(C#Cc2ccc3c4cccc5cccc(c6cccc2c63)c54)c(=O)[nH]c1=O
- CC50 at 24 h [5]: > 50 µM
- pEC50 [1]: 7.30
- CC50 at 168 h [6]: > 50 µM
- CC50 at 24 h [2]: > 50 µM
- CC50 at 168 h [3]: > 50 µM
- CC50 at 24 h [7]: 61 µM
- CC50 at 168 h [8]: 65 µM
- EC50 (Enterovirus A71): Not Active
- Activity [4]: Toxic
- Activity (Vero): Toxic
- Activity (RD): Toxic
- Activity (Poliovirus 1): inactive
- Activity (Echovirus): inactive

SMILES: O=C(Cn1cc(C#Cc2ccc3c4cccc5cccc(c6cccc2c63)c54)c(=O)[nH]c1=O)NCCO
- pEC50 [1]: 8.52
- CC50 at 24 h [2]: > 50 µM
- CC50 at 168 h [3]: > 50 µM
- CC50 at 24 h [7]: > 104 µM
- CC50 at 168 h [8]: > 104 µM
- EC50 (Enterovirus A71): Not Active
- Activity [4]: Toxic
- Activity (Vero): Toxic
- Activity (RD): Toxic
- Activity (Poliovirus 1): inactive
- Activity (Echovirus): inactive

SMILES: CCCCNC(=O)Cn1cc(C#Cc2ccc3c4cccc5cccc(c6cccc2c63)c54)c(=O)n(COC(=O)C(C)(C)C)c1=O
- CC50 at 24 h [5]: > 50 µM
- pEC50 [1]: 7.27
- CC50 at 168 h [6]: > 50 µM
- CC50 at 24 h [2]: > 50 µM
- CC50 at 168 h [3]: > 50 µM
- CC50 at 24 h [7]: 38 µM
- CC50 at 168 h [8]: 10 µM
- EC50 (Enterovirus A71): Not Active
- Activity [4]: Toxic
- Activity (Vero): Toxic
- Activity (RD): Toxic
- Activity (Poliovirus 1): inactive
- Activity (Echovirus): inactive

SMILES: CCCCNC(=O)Cn1cc(C#Cc2ccc3c4cccc5cccc(c6cccc2c63)c54)c(=O)[nH]c1=O
- pEC50 [1]: 7.85
- CC50 at 24 h [2]: > 50 µM
- CC50 at 168 h [3]: > 50 µM
- CC50 at 24 h [7]: 76 µM
- CC50 at 168 h [8]: 76 µM
- EC50 (Enterovirus A71): Not Active
- Activity [4]: Toxic
- Activity (Vero): Toxic
- Activity (RD): Toxic
- Activity (Poliovirus 1): inactive
- Activity (Echovirus): inactive
